The supplement of paper PMC11451515

System: P12-Ichikawa
Assay: cell viability relative to DMSO control; higher = less cytotoxic
Settings: 48 h
Summary of the method: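 Viability, reported as a per-plate percentage of DMSO wells with cell-free wells as background, came from CellTiter-Glo One luminescence. Reading took place after 48 h at 37°C. Before that, NOMO1 or SEM (500 cells/well) or P12-Ichikawa (1000 cells/well) leukemia cells, adapted for at least four passages in each medium, were seeded in 1536-well plates (5 μl) and pin-dosed with library compounds in DMSO, 47 μM to 0.79 nM over 11 threefold points.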

[1] = HPLM + 10% dialyzed FBS, 0.000781 µM
[2] = HPLM + 10% dialyzed FBS, 0.00234 µM
[3] = HPLM + 10% dialyzed FBS, 0.00702 µM
[4] = HPLM + 10% dialyzed FBS, 0.0211 µM
[5] = HPLM + 10% dialyzed FBS, 0.0632 µM
[6] = HPLM + 10% dialyzed FBS, 0.19 µM
[7] = HPLM + 10% dialyzed FBS, 0.569 µM
[8] = HPLM + 10% dialyzed FBS, 1.71 µM
[9] = HPLM + 10% dialyzed FBS, 5.12 µM
[10] = HPLM + 10% dialyzed FBS, 15.4 µM
[11] = HPLM + 10% dialyzed FBS, 46.1 µM
[12] = RPMI 5 mM glucose + 10% FBS, 0.000781 µM
[13] = RPMI 5 mM glucose + 10% FBS, 0.00234 µM
[14] = RPMI 5 mM glucose + 10% FBS, 0.00702 µM
[15] = RPMI 5 mM glucose + 10% FBS, 0.0211 µM
[16] = RPMI 5 mM glucose + 10% FBS, 0.0632 µM
[17] = RPMI 5 mM glucose + 10% FBS, 0.19 µM
[18] = RPMI 5 mM glucose + 10% FBS, 0.569 µM
[19] = RPMI 5 mM glucose + 10% FBS, 1.71 µM
[20] = RPMI 5 mM glucose + 10% FBS, 5.12 µM
[21] = RPMI 5 mM glucose + 10% FBS, 15.4 µM
[22] = RPMI 5 mM glucose + 10% FBS, 46.1 µM
[23] = RPMI 5 mM glucose + 10% dialyzed FBS, 0.000781 µM
[24] = RPMI 5 mM glucose + 10% dialyzed FBS, 0.00234 µM
[25] = RPMI 5 mM glucose + 10% dialyzed FBS, 0.00702 µM
[26] = RPMI 5 mM glucose + 10% dialyzed FBS, 0.0211 µM
[27] = RPMI 5 mM glucose + 10% dialyzed FBS, 0.0632 µM
[28] = RPMI 5 mM glucose + 10% dialyzed FBS, 0.19 µM
[29] = RPMI 5 mM glucose + 10% dialyzed FBS, 0.569 µM
[30] = RPMI 5 mM glucose + 10% dialyzed FBS, 1.71 µM
[31] = RPMI 5 mM glucose + 10% dialyzed FBS, 5.12 µM
[32] = RPMI 5 mM glucose + 10% dialyzed FBS, 15.4 µM
[33] = RPMI 5 mM glucose + 10% dialyzed FBS, 46.1 µM

Compound | cell viability [1] | cell viability [2] | cell viability [3] | cell viability [4] | cell viability [5] | cell viability [6] | cell viability [7] | cell viability [8] | cell viability [9] | cell viability [10] | cell viability [11] | cell viability [12] | cell viability [13] | cell viability [14] | cell viability [15] | cell viability [16] | cell viability [17] | cell viability [18] | cell viability [19] | cell viability [20] | cell viability [21] | cell viability [22] | cell viability [23] | cell viability [24] | cell viability [25] | cell viability [26] | cell viability [27] | cell viability [28] | cell viability [29] | cell viability [30] | cell viability [31] | cell viability [32] | cell viability [33]
CC1=CC=C2\N=C/3N(CC[C@@]3(O)C(=O)C2=C1)C4=CC=CC=C4 | 97.2% | 98.3% | 94.9% | 94.6% | 99.3% | 88.8% | 92.1% | 95.3% | 82% | 86.6% | 89.5% | 84.8% | 82.3% | 92% | 90.2% | 92.4% | 89.2% | 89% | 90.2% | 83.8% | 86.7% | 86.9% | 95.4% | 86% | 84.1% | 83.1% | 84.5% | 81.1% | 90% | 82.1% | 81.9% | 76.4% | 78.7%
CCN1\C=C(C(O)=O)/C(=O)C2=C1C=C(N3CCN(C)CC3)C(=C2)F | 117% | 118% | 114% | 107% | 116% | 113% | 108% | 105% | 90.7% | 77.5% | 71.5% | 110% | 116% | 117% | 108% | 117% | 120% | 108% | 112% | 84% | 73.9% | 69.1% | 110% | 121% | 112% | 121% | 109% | 123% | 108% | 104% | 83.1% | 69.1% | 61.9%
O=C(c1ccc(/C=C/c2n[nH]c3ccccc23)cc1)N1CCNCC1 | 94.8% | 101% | 98% | 99.4% | 111% | 102% | 108% | 9.55% | 13.2% | 12.2% | 19.6% | 92.6% | 90.8% | 100% | 91.3% | 101% | 107% | 102% | 13.5% | 16.9% | 16.3% | 19.5% | 91.2% | 95.8% | 86.5% | 104% | 99.7% | 98.3% | 100% | 25.3% | 29.6% | 25.8% | 31.2%
CCC[C@@H](C=O)NC(=O)[C@H](CC(C)C)NC(=O)[C@H](CC(C)C)NC(=O)OCc1ccccc1 | 107% | 108% | 120% | 120% | 117% | 118% | 132% | 118% | 12.1% | 6.77% | 5.18% | 105% | 116% | 113% | 118% | 122% | 121% | 121% | 104% | 7.61% | 6.3% | 4.83% | 104% | 115% | 120% | 124% | 124% | 130% | 133% | 133% | 14.7% | 7.12% | 5.01%
Oc1cc2c(cc1O)C1c3ccc(O)c(O)c3OCC1(O)C2 (configuration not stated) | 96.7% | 106% | 108% | 112% | 103% | 113% | 95.5% | 118% | 102% | 111% | 112% | 104% | 96.6% | 102% | 101% | 101% | 103% | 102% | 110% | 118% | 109% | 108% | 97.5% | 93.8% | 103% | 102% | 98.2% | 107% | 106% | 100% | 105% | 104% | 104%
CCOC(CN1C(=O)[C@](CC(=O)Nc2ccc(C)cc2)(NC(=O)Nc2ccc(C)cc2)c2ccccc21)OCC | 103% | 105% | 109% | 111% | 105% | 109% | 115% | 108% | 111% | 111% | 19.8% | 102% | 107% | 101% | 108% | 105% | 105% | 105% | 117% | 101% | 106% | 34.8% | 100% | 104% | 93.7% | 107% | 102% | 104% | 116% | 96.3% | 102% | 98% | 37.6%
O=[S+]([O-])(O)c1ccc2cc(/N=N/c3cc([S+](=O)([O-])O)c4cccnc4c3O)ccc2c1 | 123% | 123% | 125% | 110% | 126% | 120% | 124% | 111% | 108% | 113% | 58.8% | 131% | 124% | 121% | 109% | 126% | 112% | 115% | 111% | 113% | 113% | 59.2% | 135% | 125% | 114% | 110% | 114% | 122% | 117% | 114% | 113% | 101% | 56.4%
COc1cccc2c(NCc3ccccc3)nc(-n3c(N)nc4ccccc43)nc12 | 99% | 103% | 108% | 107% | 108% | 112% | 109% | 111% | 94.3% | 58.3% | 8.25% | 94.8% | 108% | 95% | 115% | 111% | 103% | 111% | 110% | 114% | 63.7% | 6.11% | 106% | 100% | 111% | 99.6% | 112% | 114% | 119% | 111% | 102% | 76.6% | 10.1%
CCc1cccc2c3c([nH]c12)C(CC)(CC(=O)O)OCC3 (configuration not stated) | 108% | 107% | 110% | 109% | 104% | 105% | 105% | 108% | 99.4% | 99.2% | 93.7% | 104% | 107% | 106% | 103% | 101% | 99.9% | 100% | 93.1% | 96.4% | 96.6% | 85.7% | 94.4% | 98% | 99.9% | 103% | 102% | 101% | 98.9% | 98.1% | 92.9% | 94.1% | 84.8%
CC[C@H](NC(C)C)[C@H](O)c1ccc(O)c2[nH]c(=O)ccc12 | 108% | 111% | 102% | 106% | 99% | 102% | 101% | 105% | 102% | 92.1% | 97.8% | 102% | 106% | 104% | 101% | 96.9% | 107% | 108% | 94.3% | 95.2% | 94.1% | 92.6% | 91.4% | 98.2% | 97.6% | 95% | 100% | 97.1% | 98.2% | 89.9% | 93.5% | 95.1% | 93.8%
O=C(O)CCNc1cc(N2CCc3ccccc3CC2)nc(-c2ccccn2)n1 | 119% | 116% | 115% | 127% | 114% | 111% | 117% | 112% | 114% | 102% | 88.5% | 122% | 119% | 113% | 110% | 114% | 123% | 123% | 128% | 104% | 97.8% | 69.2% | 116% | 130% | 123% | 126% | 123% | 109% | 115% | 121% | 114% | 102% | 79.6%
FC(F)(F)C1=CC=C2C(SCCCCCO\C3=C\O\C(CN4CCOCC4)=C/C3=O)=CC=NC2=C1 | 107% | 122% | 123% | 120% | 129% | 126% | 132% | 123% | 123% | 107% | 88.1% | 110% | 119% | 109% | 114% | 113% | 109% | 125% | 121% | 111% | 94.4% | 66% | 112% | 118% | 113% | 116% | 130% | 116% | 127% | 119% | 115% | 104% | 78%
CCNC(=O)Nc1ccc(-c2nc3c(c(N4CCOC[C@@H]4C)n2)CCN(C2COC2)C3)cc1 | 114% | 111% | 113% | 112% | 110% | 100% | 82.1% | 63.8% | 56.6% | 49.5% | 46.1% | 113% | 113% | 107% | 116% | 104% | 96.8% | 82.7% | 61.6% | 55.4% | 41.3% | 33.9% | 114% | 108% | 111% | 106% | 103% | 95.8% | 79.3% | 64.1% | 54.6% | 39.9% | 32.7%
NCCCCCC(=O)O | 107% | 109% | 106% | 90.4% | 117% | 105% | 114% | 104% | 102% | 95.3% | 101% | 102% | 101% | 98.6% | 85.2% | 109% | 105% | 110% | 101% | 92.2% | 105% | 88.4% | 98.2% | 112% | 108% | 84.1% | 108% | 97.2% | 105% | 94.7% | 96% | 88.4% | 92.4%
OC(CCN1CCCCC1)(C2CC\3CC2\C=C3)C4=CC=CC=C4 (configuration not stated) | 118% | 128% | 123% | 98.1% | 131% | 122% | 134% | 135% | 126% | 123% | 126% |  |  |  |  |  |  |  |  |  |  |  | 118% | 122% | 134% | 91.4% | 133% | 127% | 123% | 134% | 127% | 126% | 130%
CCCC1=N[N](C)C2=C1\N=C(/NC2=O)C3=CC(=CC=C3OCC)[S+]([O-])(=O)N4CCN(C)CC4 | 82.3% | 92.6% | 89.5% | 88.6% | 90.7% | 89.5% | 88.2% | 80.4% | 86.5% | 84% | 50.7% | 81.4% | 87.3% | 89.2% | 80.9% | 77.5% | 87.6% | 84.1% | 82.1% | 85.2% | 82.4% | 20.7% | 81.4% | 84.5% | 80.8% | 86.6% | 82.5% | 86.8% | 79.7% | 85.1% | 77.8% | 79.2% | 33.1%
